Test results published in ChEMBL document CHEMBL3885881, “DrugMatrix”.

Organism: Rattus norvegicus
Assay: DrugMatrix - Regimen: Daily Repeat
Assay type: toxicity, organism-based, Sprague-Dawley
Design: regimen Daily Repeat, gender Male, age 6-8 weeks
Details: in vivo, po, route oral GAVAGE, […]; for ABSOLUTE BASOPHIL / ABSOLUTE EOSINOPHIL / ABSOLUTE LYMPHOCYTE / ABSOLUTE SEGMENTED NEUTROPHIL / BASOPHIL / EOSINOPHIL / ERYTHROCYTE COUNT / HEMATOCRIT / HEMOGLOBIN / LYMPHOCYTE / MEAN CORPUSCULAR HEMOGLOBIN / MEAN CORPUSCULAR HEMOGLOBIN CONCENTRATION / MEAN CORPUSCULAR VOLUME / MONOCYTE / NUCLEATED RED BLOOD CELLS / PLATELET COUNT: tissue Blood; for ALANINE AMINOTRANSFERASE / ALBUMIN / ALKALINE PHOSPHATASE / ASPARTATE AMINOTRANSFERASE / BLOOD UREA NITROGEN / CARBON DIOXIDE / CHOLESTEROL / CREATINE PHOSPHOKINASE / CREATININE / GLUCOSE / LACTATE DEHYDROGENASE / POTASSIUM / SODIUM / TOTAL BILIRUBIN / TOTAL PROTEIN / URIC ACID: tissue Plasma
[1] = 20 mg/kg, 120 h, dose level Low, time 5 day
[2] = 2000 mg/kg, 72 h, dose level High, time 3 day
[3] = 2000 mg/kg, 120 h, dose level High, time 5 day

COc1ccccc1OCCNCC(O)COc1cccc2[nH]c3ccccc3c12 (stereo unspecified) [CARVEDILOL]
ABSOLUTE BASOPHIL [1]: 0 CELLS/uL
ABSOLUTE EOSINOPHIL [1]: 48 CELLS/uL
ABSOLUTE LYMPHOCYTE [1]: 6685 CELLS/uL
ABSOLUTE SEGMENTED NEUTROPHIL [1]: 615 CELLS/uL
BASOPHIL [1]: 0%
EOSINOPHIL [1]: 0.67%
ERYTHROCYTE COUNT [1]: 5.51 x10E6/uL
HEMATOCRIT [1]: 34.9%
HEMOGLOBIN [1]: 13.3 G/DL
LYMPHOCYTE [1]: 90.33%
MEAN CORPUSCULAR HEMOGLOBIN [1]: 24.17 pg
MEAN CORPUSCULAR HEMOGLOBIN CONCENTRATION [1]: 38.13 G/DL
MEAN CORPUSCULAR VOLUME [1]: 63.4 fL
MONOCYTE [1]: 0.67%
NUCLEATED RED BLOOD CELLS [1]: 0.33 /100WBC
PLATELET COUNT [1]: 1008 x10E3/uL
ALANINE AMINOTRANSFERASE [1]: 58.33 u/L
ALBUMIN [1]: 3.93 G/DL
ALKALINE PHOSPHATASE [1]: 439.33 u/L
ASPARTATE AMINOTRANSFERASE [1]: 81.67 u/L
BLOOD UREA NITROGEN [1]: 15 mg/dL
CARBON DIOXIDE [1]: 30.67 mmol/L
CHOLESTEROL [1]: 57 mg/dL
CREATINE PHOSPHOKINASE [1]: 167.67 u/L
CREATININE [1]: 0.13 mg/dL
GLUCOSE [1]: 153.67 mg/dL
LACTATE DEHYDROGENASE [1]: 137 u/L
POTASSIUM [1]: 5.49 MEQ/L
SODIUM [1]: 144.75 MEQ/L
TOTAL BILIRUBIN [1]: 0.23 mg/dL
TOTAL PROTEIN [1]: 5.63 G/DL
URIC ACID [1]: 0.5 mg/dL
ABSOLUTE BASOPHIL [2]: 0 CELLS/uL
ABSOLUTE EOSINOPHIL [2]: 24.67 CELLS/uL
ABSOLUTE LYMPHOCYTE [2]: 8554.33 CELLS/uL
ABSOLUTE SEGMENTED NEUTROPHIL [2]: 841.33 CELLS/uL
BASOPHIL [2]: 0%
EOSINOPHIL [2]: 0.33%
ERYTHROCYTE COUNT [2]: 5.87 x10E6/uL
HEMATOCRIT [2]: 36.37%
HEMOGLOBIN [2]: 13.9 G/DL
LYMPHOCYTE [2]: 88%
MEAN CORPUSCULAR HEMOGLOBIN [2]: 23.67 pg
MEAN CORPUSCULAR HEMOGLOBIN CONCENTRATION [2]: 38.23 G/DL
MEAN CORPUSCULAR VOLUME [2]: 61.93 fL
MONOCYTE [2]: 1.67%
NUCLEATED RED BLOOD CELLS [2]: 0 /100WBC
PLATELET COUNT [2]: 1204 x10E3/uL
ALANINE AMINOTRANSFERASE [2]: 147 u/L
ALBUMIN [2]: 3.83 G/DL
ALKALINE PHOSPHATASE [2]: 433.33 u/L
ASPARTATE AMINOTRANSFERASE [2]: 253.67 u/L
BLOOD UREA NITROGEN [2]: 12.33 mg/dL
CARBON DIOXIDE [2]: 35.67 mmol/L
CHOLESTEROL [2]: 135.33 mg/dL
CREATINE PHOSPHOKINASE [2]: 315.33 u/L
CREATININE [2]: 0.15 mg/dL
GLUCOSE [2]: 110.33 mg/dL
LACTATE DEHYDROGENASE [2]: 180 u/L
POTASSIUM [2]: 4.83 MEQ/L
SODIUM [2]: 143.43 MEQ/L
TOTAL BILIRUBIN [2]: 0.27 mg/dL
TOTAL PROTEIN [2]: 5.7 G/DL
URIC ACID [2]: 0.7 mg/dL
ABSOLUTE BASOPHIL [3]: 0 CELLS/uL
ABSOLUTE EOSINOPHIL [3]: 92.67 CELLS/uL
ABSOLUTE LYMPHOCYTE [3]: 7992.67 CELLS/uL
ABSOLUTE SEGMENTED NEUTROPHIL [3]: 4483.67 CELLS/uL
BASOPHIL [3]: 0%
EOSINOPHIL [3]: 0.67%
ERYTHROCYTE COUNT [3]: 7.13 x10E6/uL
HEMATOCRIT [3]: 41.5%
HEMOGLOBIN [3]: 15.4 G/DL
LYMPHOCYTE [3]: 64.67%
MEAN CORPUSCULAR HEMOGLOBIN [3]: 21.77 pg
MEAN CORPUSCULAR HEMOGLOBIN CONCENTRATION [3]: 37.27 G/DL
MEAN CORPUSCULAR VOLUME [3]: 58.43 fL
MONOCYTE [3]: 1.67%
NUCLEATED RED BLOOD CELLS [3]: 0 /100WBC
PLATELET COUNT [3]: 1163.67 x10E3/uL
ALANINE AMINOTRANSFERASE [3]: 380 u/L
ALBUMIN [3]: 3.27 G/DL
ALKALINE PHOSPHATASE [3]: 444.33 u/L
ASPARTATE AMINOTRANSFERASE [3]: 620.33 u/L
BLOOD UREA NITROGEN [3]: 39.33 mg/dL
CARBON DIOXIDE [3]: 27 mmol/L
CHOLESTEROL [3]: 132.33 mg/dL
CREATINE PHOSPHOKINASE [3]: 3005.33 u/L
CREATININE [3]: 0.42 mg/dL
GLUCOSE [3]: 124 mg/dL
LACTATE DEHYDROGENASE [3]: 673.67 u/L
POTASSIUM [3]: 6.23 MEQ/L
SODIUM [3]: 138.53 MEQ/L
TOTAL BILIRUBIN [3]: 0.4 mg/dL
TOTAL PROTEIN [3]: 5.33 G/DL
URIC ACID [3]: 1.5 mg/dL
